Consider 17 compounds from PubChem BioAssay (NCI).

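Cells were grown in 96-well plates and exposed to each compound for 48 hours at five concentrations; endpoints were interpolated linearly between bracketing concentrations, or set to the highest concentration if not reached. The concentration for full growth arrest is given as TGI.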 Where a SMILES comes first, the peptide text is derived from it. The star is where a group is joined. Bn = c1ccc(C*)cc1 A value given as a limit tells only on which side of the number the result lay.

Common to all, as to test: inhibition of tumour cell growth, NCI panel, 48 h
Test [1] has as its system A549 NSCLC.
Test [2] concerns ACHN renal.
Test [3] relates to HT29 colon.
Test [4] relates to IGROV1 ovarian.
Test [5] concerns OVCAR-5 ovarian.
The subject of test [6] is RXF 393 renal.
Test [7] relates to SF-295 CNS.
Test [8] concerns SW-620 colon.

For `C=C1C(=O)OC2/C=C(/C)C3(O)OC(C)(CC(OC(=O)C(C)C)C12)CC3OC(C)=O` (stereo not drawn), the TGI in test [1] is above 100 µM; in test [2], 8.67 µM; in test [3], 22 µM; in test [4], 36.6 µM; in test [5], 65.9 µM; in test [6], 6.82 µM. In addition, the TGI in test [7] was 56.5 µM; in test [8], above 45.1 µM.
Turning to `OC1(c2ccc(Cl)cc2)c2ccc(CN3CCCC3)cc2C2=NCCN21` (stereo not drawn), the TGI was 33.3 µM in test [1]; 30.3 µM in test [2]; 26.7 µM in test [3]; 28.7 µM in test [4]; 31.9 µM in test [5]; 21.2 µM in test [6]. The values for the TGI in test [7] and in test [8] were 29.5 µM and 26.5 µM, respectively.
Consider `O=C1CCCc2cc3c(cc21)CC1(C3)Cc2ccc3c(c2C1)C(=O)CCC3` (stereo not drawn), for which the TGI was above 100 µM in test [1]; 55.4 µM in test [2]; above 100 µM in test [3]; above 100 µM in test [4]; above 100 µM in test [5]; above 100 µM in test [6]. The TGI in test [7] and in test [8] was above 100 µM in each case.
As for `Nc1nc(Nc2ccccc2)sc1C(=O)c1c[nH]c2ccccc12`, the TGI in test [1] amounted to 23.7 µM; in test [2], 62.2 µM; in test [3], 14.6 µM; in test [4], 31.2 µM; in test [5], 24.9 µM; in test [6] it was 23.1 µM. Moreover, the TGI in test [8] came out at 31.2 µM.
Regarding `COC(=O)C1=C(O)C(C(=O)OC)[C@@]2(O)[C@@H](C(=O)OC)[C@H](C)[C@@H](C)[C@@H]1[C@@H]2C(=O)OC` (stereo partly drawn), the TGI in test [2] was above 100 µM; in test [3], above 100 µM; in test [5], above 100 µM; in test [6], 72.3 µM.
With `CCOC(=O)C(C)c1nc2c(Cl)c3ncccc3cc2[nH]c1=O` (stereo not drawn), the TGI in test [1], in test [2], in test [3], in test [4], in test [5] and in test [6] was above 100 µM in each case. In addition, the TGI in test [7] and in test [8] was above 100 µM each time.
Regarding `CCCCC/C(C=O)=C\c1ccccc1`, the TGI in test [2], in test [3], in test [4], in test [6], in test [7] and in test [8] was above 100 µM each time.
For the compound `O=C(O)c1c2c(cc3c1CC1(Cc4ccccc4C1=O)C3)CCC2` (stereo not drawn), the TGI in test [1] was above 100 µM; in test [2], above 100 µM; in test [3], above 69.7 µM; in test [4], above 100 µM; in test [5], above 100 µM; in test [6], above 100 µM. For the same compound, the TGI in test [7] and in test [8] was above 100 µM in each case.
Regarding `COC(=O)c1cc2c(cc1CC(Cc1ccc3c(c1)CCC3)C(=O)OC)CCC2` (stereo not drawn), the TGI in test [1] is above 100 µM; in test [2], above 100 µM; in test [3], above 100 µM; in test [4], above 100 µM; in test [5] it was above 100 µM; in test [6], 65.3 µM. For the same compound, the TGI in test [7] and in test [8] was above 100 µM in each case.
In the case of `Clc1ccc(Cl)c(SCCCN2CCNCC2)c1`, the TGI in test [1] was 44.4 µM; in test [2], 31.1 µM; in test [3], 37.7 µM; in test [4] it was 42.2 µM; in test [5], 32.5 µM; in test [6] it was 32.4 µM. For the same compound, the TGI in test [7] was found to be 37.1 µM; in test [8], 56.7 µM.
Turning to `Nc1nc(Nc2ccc(Cl)cc2)sc1C(=O)c1cccs1`, the TGI was above 100 µM in test [1]; above 100 µM in test [2]; above 100 µM in test [3]; above 100 µM in test [4]; above 100 µM in test [5]; 42 µM in test [6]. The compound further yielded a TGI in test [8] above 100 µM.
Take `COc1cc(OCc2ccc3nc(OC)c(OC)nc3c2)cc(OC)c1OC`: the TGI in test [1], in test [2], in test [3], in test [4], in test [5] and in test [6] was above 10 µM throughout. Further, the TGI in test [7] and in test [8] was above 10 µM throughout.
As to `COC(=O)C1(Cc2ccc3c(c2)CCC3)Cc2cc3c(cc2C1)CCC3`, the TGI in test [1] is above 100 µM; in test [2], above 100 µM; in test [3] it was 89.3 µM; in test [4] it was above 100 µM; in test [5] it was above 100 µM; in test [6], 68.8 µM. Moreover, the TGI in test [7] and in test [8] was above 100 µM in each case.
For `OCC(O)C(O)C(O)/C=N/Nc1nc(O)c(/C=C2\C=Nc3ccccc32)[nH]1` (stereo not drawn), the TGI in test [1], in test [2], in test [3], in test [4], in test [5] and in test [6] was above 100 µM in each case. The TGI in test [7] and in test [8] was above 100 µM throughout.
Consider `COC(=O)C(CC(C)C)NC(=O)C(N)Cc1ccc(OCc2ccccc2)cc1` (stereo not drawn) (H-Tyr(Bn)-Leu-OMe; configuration not given here), for which the TGI in test [1], in test [2], in test [3], in test [4], in test [5] and in test [6] was above 10 µM throughout. Moreover, the TGI in test [7] and in test [8] was above 10 µM in each case.
In the case of `N#Cc1c(C#N)c(-c2ccccc2)n(-c2ccccc2)c1N`, the TGI in test [1], in test [2], in test [3], in test [4], in test [5] and in test [6] was above 100 µM throughout. The TGI in test [7] and in test [8] was above 100 µM throughout.
Regarding `O/C(=C\c1nc2ccccc2nc1NC12CC3CC(CC(C3)C1)C2)c1ccc(Br)cc1`, the TGI in test [1], in test [2], in test [3], in test [4], in test [5] and in test [6] was above 10 µM each time. Besides, the TGI in test [7] and in test [8] was above 10 µM each time.
